Laboratory results from patent US8445480B2, “CETP inhibitors derived from benzoxazole arylamides” (Merck Sharp & Dohme Corp., priority 2007, dated 2013).

These compounds were tested against T1, recombinant human CETP (Homo sapiens, UniProt P11597) (assay: CETP assay, in vitro continuous fluorescence assay of CE transfer (BODIPY-CE donor particles)). Conditions: CE transfer reaction, 3% human serum, 25° C.; read-out: IC50 value as measured for the CE transfer reaction.
T1 construct: made in house; host or cells: CHO cells
T1 sequence (P11597 18-493): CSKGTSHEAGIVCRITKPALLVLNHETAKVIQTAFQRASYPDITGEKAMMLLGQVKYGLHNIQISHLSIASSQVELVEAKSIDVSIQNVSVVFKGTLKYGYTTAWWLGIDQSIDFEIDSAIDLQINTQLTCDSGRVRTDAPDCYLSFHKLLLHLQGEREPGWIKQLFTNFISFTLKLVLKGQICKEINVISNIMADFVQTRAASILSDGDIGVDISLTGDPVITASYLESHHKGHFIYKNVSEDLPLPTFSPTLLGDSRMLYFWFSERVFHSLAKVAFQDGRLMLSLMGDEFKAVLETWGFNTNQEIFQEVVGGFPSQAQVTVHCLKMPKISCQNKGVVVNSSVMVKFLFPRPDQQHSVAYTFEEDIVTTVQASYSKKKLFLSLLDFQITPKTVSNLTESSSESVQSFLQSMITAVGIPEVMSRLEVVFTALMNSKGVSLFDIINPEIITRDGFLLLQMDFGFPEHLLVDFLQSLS
Format: biochemical
Protocol: An in vitro continuous assay for determining IC50's to identify compounds that are CETP inhibitors was performed based on a modification of the method described by Epps et al. employing BODIPY®-CE as the cholesteryl ester lipid donor and BODIPY®-TG as the triglyceride lipid donor. See Epps et al. (1995) Method for measuring the activities of cholesteryl ester transfer protein (lipid transfer protein), Chem. Phys. Lipids. 77, 51-63.
Particles used in the assay were created from the following materials by probe sonication essentially as described by Epps et al. Synthetic cholesteryl ester (CE) donor HDL particles contained DOPC (Dioleoyl Phosphatidyl Choline), BODIPY®-CE (Molecular Probes C-3927), triolein (a triglyceride), dabcyl dicetylamide, (a non-diffusible quencher molecule to reduce background fluorescence) and apoHDL. Synthetic triglyceride (TG) donor HDL particles contained DOPC, BODIPY®-TG, and apoHDL. […] Particle concentrations were expressed in terms of protein concentration as determined by BCA assay (Pierce, USA). […]
Assays were performed in Dynex Microfluor 2 U-bottom black 96-well plates (Cat #7205). […] CE transfer reactions were performed as follows: final concentrations of materials were: 2.5 ng/μCE donor particles, 7.5 ng/μL acceptor particles (each expressed by protein content), 1×CETP buffer, 14-30 nM recombinant human CETP (expressed in CHO cells and partially purified), and up to 2% DMSO when testing compounds; reactions were followed in a fluorescence plate reader (Molecular Devices Spectramax GeminiXS) set for a 45 minute kinetic run at 25° C. which read the samples every 45 sec at Ex=480 nm, Em=511 nm, with a cutoff filter at 495 nm, photomultiplier tube setting of medium, calibration on, and 6 reads/well. […] TG transfer was measured at an excitation wavelength of 538 nm while reading emission at 568 nm every 45 sec for 45 min at 37° C. with a cutoff filter at 550 nm.
Data were evaluated by obtaining an initial rate, expressed in relative fluorescence units per second, for the pseudolinear portion of the curve, often 0-500 or 1000 sec. […]

IC50 | Compound
13 to 60 nM | CC(C)c1cc(C#N)cc2nc(-c3ccc(C(=O)NCC4CCN(c5nccc(C(F)(F)F)n5)CC4)cc3)oc12 [Example 1, 4-(5-Cyano-7-isopropyl-1,3-benzoxazol-2-yl)-N-({1-[4-(trifluoromethyl)pyrimidin-2-yl]piperidin-4-yl}methyl)benzamide]
13 to 60 nM | CC(C)c1cc(C#N)cc2nc(-c3ccc(C(=O)NCC4CCN(c5ccc(C(F)(F)F)cn5)CC4)cc3)oc12 [Example 3]
13 to 60 nM | CC(C)c1cc(C#N)cc2nc(-c3ccc(C(=O)NCC4CCN(Cc5cccc(C(F)(F)F)c5)CC4)cc3)oc12 [Example 58]
